Key:
watergrass, late = test: Test F flood (paddy) test; type: in vivo, Echinochloa oryzicola; conditions: 21 d, scale 0-100
From the text: Three plastic pots (ca. 16-cm diameter) per rate were partially filled with sterilized Tama silt loam soil comprising a 35:50:15 ratio of sand, silt and clay and 2.6% organic matter. Separate plantings for each of the three pots were as follows. Seeds from the U.S. of monochoria (Monochoria vaginalis), sedge, umbrella (small-flower umbrella sedge, Cyperus difformis), bulrush, […] bulrush, Scirpus juncoides), and […] (purple […] coccinea), were planted into one 16-cm pot for each rate. Seeds from the U.S. of flatsedge, rice (rice flatsedge, Cyperus iria), sprangletop, Brdd. (bearded sprangletop, Leptochloa fascicularis), one stand of 9 or 10 water seeded rice seedlings (Rice, W.S. Jap, Oryza sativa cv. 'Japonica-[…]' or Rice, W.S. Ind, 'Indica'), and two stands of 3 or 4 seedlings of rice, transplanted (transplanted rice, Oryza sativa cv. 'Japonica-[…]') were planted into one 16-cm pot for each rate. Seeds from the U.S. of barnyardgrass (Echinochloa crus-galli), […] (common […], Alisma plantago-aquatica), and watergrass, late (late watergrass, Echinochloa oryzicola) were planted into one 16-cm pot for each rate. Plantings were sequential so that crop and weed species were at the 2.0 to 2.5-leaf stage at time of treatment. Potted plants were grown in a greenhouse with day/night temperature settings of 30/27° C., and supplemental balanced lighting was provided to maintain a 16-h photoperiod. Test pots were maintained in the greenhouse until test completion. At time of treatment, test pots were flooded to 3 cm above the soil surface, treated by application of test compounds directly to the paddy water, and then maintained at that water depth for the duration of the test. Effects of treatments on rice and weeds were visually evaluated by comparison to untreated controls after 21 d. Plant response ratings, summarized in Table F, are based on a scale of 0 to 100 where 0 is no effect and 100 is complete control. A dash (-) response means no test result.

kochia = test: Test D pre-/postemergence herbicide test; type: in vivo, Kochia scoparia; conditions: for Plant response rating: Kochia, scale 0 to 100; for Plant response rating, Kochia: scale 0 to 100 (0 no effect, 100 complete control)
From the text: (§1) Seeds of plant species selected from bluegrass (annual bluegrass, Poa annua), blackgrass (Alopecurus myosuroides), canarygrass (littleseed canarygrass, Phalaris minor), chickweed (common chickweed, Stellaria media), galium (catchweed bedstraw, Galium aparine), bromegrass, downy (downy bromegrass, Bromus tectorum), field poppy (Papaver rhoeas), field violet (Viola arvensis), foxtail, green (green foxtail, Setaria viridis), deadnettle (henbit deadnettle, Lamium amplexicaule), ryegrass, Italian (Italian ryegrass, Lolium multiflorum), kochia (Kochia scoparia), lambsquarters (Chenopodium album), oilseed rape (Brassica napus), pigweed (Amaranthus retroflexus), chamomile (scentless chamomile, Matricaria inodora), Russian thistle (Salsola kali), speedwell (bird's-eye speedwell, Veronica persica), barley, spring (spring barley, Hordeum vulgare), wheat, spring (spring wheat, Triticum aestivum), buckwheat, wild (wild buckwheat, Polygonum convolvulus), mustard, wild (wild mustard, Sinapis arvensis), oat, wild (wild oat, Avena fatua), radish, wild (wild radish, Raphanus raphanistrum), […]), barley, winter (winter barley, Hordeum vulgare), and wheat, winter (winter wheat, Triticum aestivum) were planted into a silt loam soil and treated preemergence with test chemicals formulated in a non-phytotoxic solvent mixture which included a surfactant. At the same time, these species were planted in pots containing Redi-Earth® planting medium (Scotts Company, 14111 Scottslawn Road, Marysville, Ohio 43041) comprising spaghnum peat moss, vermiculite, wetting agent and starter nutrients and treated with postemergence applications of the test chemicals formulated in the same manner. Plants ranged in height from 2 to 18 cm (1- to 4-leaf stage). Treated plants and controls were maintained in a controlled growth environment for 7 to 21 days after which time all species were compared to controls and visually evaluated. Plant response ratings, summarized in Table D, are based on a scale of 0 to 100 where 0 is no effect and 100 is complete control. A dash (-) response means no test result.

chamomile = test: Test D pre-/postemergence herbicide test; type: in vivo, Matricaria inodora; conditions: for Plant response rating: Chamomile, scale 0 to 100; for Plant response rating, Chamomile: scale 0 to 100 (0 no effect, 100 complete control)
From the text: as §1

windgrass = test: Test D pre-/postemergence herbicide test; type: in vivo, Apera spica-venti; conditions: for Plant response rating: Postemergence, Windgrass, scale 0 to 100; for Plant response rating, Windgrass: Preemergence, scale 0 to 100 (0 no effect, 100 complete control)
From the text: as §1

surinam grass = test: Test E preemergence herbicide test; type: in vivo, Brachiaria decumbens; design: key: 0 = no effect, 100 = complete control
From the text: (§2) Seeds of plant species selected from corn (Zea mays), soybean (Glycine max), velvetleaf (Abutilon theophrasti), lambsquarters (Chenopodium album), wild poinsettia (Euphorbia heterophylla), pigweed, palmer (palmer pigweed, Amaranthus palmeri), waterhemp (common waterhemp, Amaranthus rudis), surinam grass (Brachiaria decumbens), crabgrass, large (large crabgrass, Digitaria sanguinalis), crabgrass, Brazil (Brazilian crabgrass, Digitaria horizontalis), panicum, fall (fall panicum, Panicum dichotomiflorum), foxtail, giant (giant foxtail, Setaria faberii), foxtail, green (green foxtail, Setaria viridis), goosegrass (Eleusine indica), johnsongrass (Sorghum halepense), ragweed (common ragweed, Ambrosia elatior), barnyardgrass (Echinochloa crus-galli), sandbur (southern sandbur, Cenchrus echinatus), arrowleaf […] rhombifolia), ryegrass, Italian (Italian ryegrass, Lolium multiflorum), dayflower, VA (Virginia dayflower, Commelina virginica), field bindweed (Convolvulus arvensis), morningglory (Ipomoea coccinea), nightshade (eastern black nightshade, Solanum ptycanthum), kochia (Kochia scoparia), nutsedge, yellow (yellow nutsedge, Cyperus esculentus), cocklebur (common cocklebur, Xanthium strumarium), smartweed (ladysthumb smartweed, Polygonum Persicaria) and beggarticks (hairy beggarticks, Bidens pilosa), were planted into a silt loam soil and treated preemergence with test chemicals formulated in a non-phytotoxic solvent mixture which included a surfactant. Treated plants and controls were maintained in a greenhouse for 21 days, after which time all species were compared to controls and visually evaluated. Plant response ratings, summarized in Table E, are based on a scale of 0 to 100 where 0 is no effect and 100 is complete control. A dash (-) response means no test result.

crabgrass, Brazil = test: Test E preemergence herbicide test; type: in vivo, Digitaria horizontalis; design: key: 0 = no effect, 100 = complete control
From the text: as §2

panicum, fall = test: Test E preemergence herbicide test; type: in vivo, Panicum dichotomiflorum; design: key: 0 = no effect, 100 = complete control
From the text: as §2

Row | SMILES | Plant response rating, Watergrass, Late (watergrass, late; 250 g ai/ha) | Plant response rating, Watergrass, Late (watergrass, late; 500 g ai/ha) | Plant response rating, Watergrass, Late (watergrass, late; 125 g ai/ha) | Plant response rating (kochia; Postemergence, 16 g ai/ha) | Plant response rating (kochia; Postemergence, 62 g ai/ha) | Plant response rating (kochia; Postemergence, 125 g ai/ha) | Plant response rating (kochia; Postemergence, 250 g ai/ha) | Plant response rating, Kochia (kochia; Preemergence, 31 g ai/ha) | Plant response rating, Kochia (kochia; Preemergence, 62 g ai/ha) | Plant response rating (kochia; Preemergence, 250 g ai/ha) | Plant response rating (chamomile; Postemergence, 16 g ai/ha) | Plant response rating (chamomile; Postemergence, 31 g ai/ha) | Plant response rating (chamomile; Postemergence, 62 g ai/ha) | Plant response rating (chamomile; Postemergence, 125 g ai/ha) | Plant response rating (chamomile; Postemergence, 250 g ai/ha) | Plant response rating (windgrass; 16 g ai/ha) | Plant response rating (windgrass; 31 g ai/ha) | Plant response rating (windgrass; 62 g ai/ha) | Plant response rating (windgrass; 125 g ai/ha) | Plant response rating (windgrass; 250 g ai/ha) | further results
1 | O=C1NCC(c2cccc(C(F)(F)F)c2)C1C(=O)Nc1ccccc1F (racemic) [Compound 3] | 80 | 85 |  |  |  |  |  |  |  |  |  |  |  |  |  |  |  |  |  |  | 
2 | O=C1NCC(c2ccc(C(F)(F)F)c(F)c2)C1C(=O)Nc1cccc(F)c1F (racemic) [Compound 247] | 65 | 70 | 65 |  |  |  |  |  |  |  |  |  |  |  |  |  |  |  |  |  | Plant response rating, Watergrass, Late (watergrass, late; 1000 g ai/ha): 85; Plant response rating, Watergrass, Late (watergrass, late; 2000 g ai/ha): 90
3 | O=C1NCC(c2ccc(F)c(F)c2)C1C(=O)Nc1cccc(F)c1 (racemic) [Compound 12] |  |  |  | 5 | 20 | 20 | 35 | 0 | 0 | 0 | 0 | 0 | 0 | 0 | 0 | 0 | 0 | 0 | 0 | 5 | Plant response rating (kochia; Postemergence, 31 g ai/ha): 5; Plant response rating, Kochia (kochia; Preemergence, 16 g ai/ha): 0; Plant response rating (kochia; Preemergence, 125 g ai/ha): 0; Plant response rating, Chamomile (chamomile; Preemergence, 31 g ai/ha): 0; Plant response rating, Chamomile (chamomile; Preemergence, 62 g ai/ha): 0; Plant response rating, Chamomile (chamomile; Preemergence, 16 g ai/ha): 0; Plant response rating (chamomile; Preemergence, 125 g ai/ha): 0; Plant response rating (chamomile; Preemergence, 250 g ai/ha): 20; Plant response rating, Windgrass (windgrass; 31 g ai/ha): 0; Plant response rating, Windgrass (windgrass; 62 g ai/ha): 0; Plant response rating, Windgrass (windgrass; 125 g ai/ha): 0; Plant response rating, Windgrass (windgrass; 250 g ai/ha): 0; Plant response rating, Windgrass (windgrass; 16 g ai/ha): 0
4 | O=C1NCC(c2cccc(Br)c2)C1C(=O)Nc1ccccc1F (stereo not drawn) [Compound 66] |  |  |  |  |  |  |  |  |  |  |  |  |  |  |  |  |  |  |  |  | Plant response rating, Surinam Grass (surinam grass; 16 g ai/ha): 0; Plant response rating, Surinam Grass (surinam grass; 31 g ai/ha): 0; Plant response rating, Surinam Grass (surinam grass; 62 g ai/ha): 0; Plant response rating, Surinam Grass (surinam grass; 125 g ai/ha): 0; Plant response rating, Surinam Grass (surinam grass; 250 g ai/ha): 35; Plant response rating, Crabgrass, Brazil (crabgrass, Brazil; 16 g ai/ha): 85; Plant response rating, Crabgrass, Brazil (crabgrass, Brazil; 31 g ai/ha): 85; Plant response rating, Crabgrass, Brazil (crabgrass, Brazil; 62 g ai/ha): 95; Plant response rating, Crabgrass, Brazil (crabgrass, Brazil; 125 g ai/ha): 98; Plant response rating, Crabgrass, Brazil (crabgrass, Brazil; 250 g ai/ha): 98; Plant response rating, Panicum, Fall (panicum, fall; 16 g ai/ha): 0; Plant response rating, Panicum, Fall (panicum, fall; 31 g ai/ha): 0; Plant response rating, Panicum, Fall (panicum, fall; 62 g ai/ha): 0; Plant response rating, Panicum, Fall (panicum, fall; 125 g ai/ha): 0; Plant response rating, Panicum, Fall (panicum, fall; 250 g ai/ha): 0
5 | O=C1NCC(c2cccc(C(F)(F)F)c2)C1C(=O)Nc1ccc(F)cc1F (racemic) [Compound 207] | 85 | 90 | 65 |  |  |  |  | 10 | 10 | 60 |  |  |  |  |  |  |  |  |  |  | Plant response rating, Kochia (kochia; Preemergence, 125 g ai/ha): 10; Plant response rating, Chamomile (chamomile; Preemergence, 31 g ai/ha): 75; Plant response rating, Chamomile (chamomile; Preemergence, 62 g ai/ha): 80; Plant response rating, Chamomile (chamomile; Preemergence, 125 g ai/ha): 85; Plant response rating (chamomile; Preemergence, 250 g ai/ha): 85; Plant response rating, Windgrass (windgrass; 31 g ai/ha): 5; Plant response rating, Windgrass (windgrass; 62 g ai/ha): 20; Plant response rating, Windgrass (windgrass; 125 g ai/ha): 20; Plant response rating, Windgrass (windgrass; 250 g ai/ha): 65
6 | O=C1NCC(c2cccc(C(F)(F)F)c2)C1C(=O)Nc1cccc(F)c1F (stereo not drawn) [Compound 241] |  |  |  |  |  |  |  | 20 | 30 | 70 |  |  |  |  |  |  |  |  |  |  | Plant response rating, Kochia (kochia; Preemergence, 125 g ai/ha): 80; Plant response rating, Windgrass (windgrass; 31 g ai/ha): 65; Plant response rating, Windgrass (windgrass; 62 g ai/ha): 90; Plant response rating, Windgrass (windgrass; 125 g ai/ha): 95; Plant response rating, Windgrass (windgrass; 250 g ai/ha): 98
7 | O=C1NCC(c2cc(F)c(F)c(F)c2)C1C(=O)Nc1ccccc1C(F)(F)F (racemic) [Compound 33] |  |  |  | 0 | 0 | 0 | 10 |  |  |  | 0 | 0 | 0 | 0 | 0 | 0 | 0 | 0 | 0 | 0 | Plant response rating (kochia; Postemergence, 31 g ai/ha): 0
8 | O=C1NCC(c2cc(F)c(F)c(F)c2)C1C(=O)Nc1ccccc1F (racemic) [Compound 34] |  |  |  | 0 | 0 | 10 | 25 |  |  |  | 0 | 0 | 0 | 0 | 0 | 0 | 0 | 0 | 0 | 0 | 
9 | CN1CC(c2ccc(F)cc2)C(C(=O)Nc2cccc(F)c2F)C1=O (stereo not drawn) [Compound 271] | 100 | 100 | 75 |  |  |  |  |  |  |  |  |  |  |  |  |  |  |  |  |  | Plant response rating, Watergrass, Late (watergrass, late; 64 g ai/ha): 45
